Data on seven compounds can be found in US10513521B2, “Compositions and methods for inhibiting BMP” (The Brigham and Women's Hospital, Inc., priority 2014, dated 2019).

Several values for one entry are separate records, joined by “and”; a condition that tells them apart may be missing. Identical values can stand only once. Bounds are passed on as bounds.

The target of experiment [1] is ALK1 (Homo sapiens, UniProt P37023). Nature of the experiment: TR-FRET enzymatic ALK kinase assay, ALK1.
Protocol: (§1) Briefly, the ALKs enzymatic assay was initiated by dispense 2.5 μl enzyme in 1× kinase reaction buffer. The assay plate was then added with compounds followed by incubation at room temperature for 10 minutes. Then 2.5 μl/well substrate was added.
Experiment [2] deals with ALK6 (Homo sapiens, UniProt O00238). Nature of the experiment: TR-FRET enzymatic ALK kinase assay, ALK6.
Protocol: as §1
Experiment [3] has as its target ALK3 (Homo sapiens, UniProt P36894). Nature of the experiment: TR-FRET enzymatic ALK kinase assay, ALK3.
Protocol: as §1
For experiment [4], the target named is T1, ALK1 (Bos taurus, UniProt A4FUX2).
T1 construct: The BAOEC cell line was employed for the measurement of ALK1 activity using BMP9 as the agonist; host or cells: BAOEC (bovine aortic endothelial cells)
T1 sequence (A4FUX2 23-503): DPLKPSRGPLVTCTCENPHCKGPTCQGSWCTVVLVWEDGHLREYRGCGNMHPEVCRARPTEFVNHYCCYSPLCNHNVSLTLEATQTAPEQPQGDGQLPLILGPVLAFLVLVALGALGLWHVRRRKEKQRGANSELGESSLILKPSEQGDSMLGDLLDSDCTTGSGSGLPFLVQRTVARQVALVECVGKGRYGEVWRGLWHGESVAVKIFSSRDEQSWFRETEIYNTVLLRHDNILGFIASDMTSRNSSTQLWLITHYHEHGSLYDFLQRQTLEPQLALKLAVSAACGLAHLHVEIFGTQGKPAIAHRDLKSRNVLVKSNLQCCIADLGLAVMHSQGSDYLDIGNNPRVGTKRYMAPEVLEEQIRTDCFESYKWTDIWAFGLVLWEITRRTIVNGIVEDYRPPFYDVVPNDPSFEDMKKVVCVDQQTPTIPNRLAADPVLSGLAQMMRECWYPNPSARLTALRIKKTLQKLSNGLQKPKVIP
The experiment in a line: In-cell Western ALK1 assay (BAOEC cells, BMP9 as agonist). Format: cell-based, Bovine. Particulars: read-out: BMP9 ICW. The source says: 3. In-Cell Western ALK1 and ALK2 Assays in 384-Well Plate Format.
We also optimized cell-based In-cell Western assays for measurements of ALK1 and ALK2 activities that were used to determine compound activities in these two kinases. The cell lines and agonists used were same as described in above cell-based HTRF ALK1 and ALK2 assays. The initial cell plating and compound treatment were also same. The main difference is the detection of phosphorylation status of SMAD1. In t-cell Western assay, the cells were fixed and phosphorylation status of SMAD1 was detected by the ELISA instead of using the HTRF assay kit in above assay.
C2C12 cells and RPMI 1640 medium were obtained from ATCC (Manassas, Va.) and Bovine Aortic endothelial Cells (BAOEC) and epithelial defined growth medium were purchased from Genlantis (San Deigo, Calif.). HyClone Fetal Bovine Serum was obtained from GE healthcare life sciences (Logan, Utah). BMP6 and BMP9 were purchased from R&D System (R&D). Anti-P-SMAD 1/5/8 rabbit mAb and anti-rabbit IgG, HRP-Linked antibody were purchased from Cell Signaling Technology (Danvers, Mass.). BioFX Chemiluminescent Ultra-Sensitive HRP Microwell Substrate ECL Reagent was obtained from SurModics (Edina, Minn.). The compound plates and the white solid MB assay plates were from Greiner Bio-one (Monroe, N.C.).
Similarly as described in above HTRF cell-based assay, this assay was performed in 384 well plate format. C2C12 were grown in T225 flasks were sterilely washed with 1×PBS pre-starved with medium containing 0.1% FBS for 20 hours. Pre-starved cells were then plated in 384 well plate in the starvation medium (containing in 0.1% FBS). After 4 hours, compound dilutions in DMSO were added to the assay plate and incubated for 30 minutes. The assay plate was then added with BMP6 for C2C12 cells or BMP9 for BAOEC cells and incubated for 30 minutes.
Cells were fixed with 50 ul ice-cold methanol and incubated for 15 min after removing the supernatant. The methanol was removed and filled with 0.5% glutaraldehyde and incubated at room temperature for 15 min. The cells were washed in the plate washer with PBS and blocked with 2% BSA in PBS for 1 h at room temperature on the rotator. After removing the blocking reagent, the cells were incubated with the anti-p-SMAD1 antibody in 2% BSA in PBS for overnight at 4° C. on rotator. The cells were washed with PBS in the plate washer and incubated with HRP conjugated second antibody in 2% BSA in PBS for 1 hour at room temperature. After a cell wash with PBS, ECL detection reagent was added and the plate was read in the luminesce mode in the ViewLux plate reader.

Experiment [5] addresses T2, ALK2 (Homo sapiens, UniProt Q04771).
T2 sequence (Q04771 21-509): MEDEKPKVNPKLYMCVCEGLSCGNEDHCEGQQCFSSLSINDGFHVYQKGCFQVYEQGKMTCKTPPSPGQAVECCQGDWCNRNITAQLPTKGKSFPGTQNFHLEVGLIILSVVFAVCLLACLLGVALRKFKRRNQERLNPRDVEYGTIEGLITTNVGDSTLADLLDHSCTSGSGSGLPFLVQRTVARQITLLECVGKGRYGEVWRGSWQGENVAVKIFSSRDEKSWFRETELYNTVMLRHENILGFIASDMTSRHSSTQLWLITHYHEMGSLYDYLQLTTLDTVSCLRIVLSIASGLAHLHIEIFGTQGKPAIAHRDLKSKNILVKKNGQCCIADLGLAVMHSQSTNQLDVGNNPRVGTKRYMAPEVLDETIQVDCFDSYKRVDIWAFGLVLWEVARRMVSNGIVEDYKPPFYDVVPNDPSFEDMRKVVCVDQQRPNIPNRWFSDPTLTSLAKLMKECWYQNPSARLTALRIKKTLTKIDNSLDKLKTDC
The experiment in a line: TR-FRET enzymatic ALK kinase assay, ALK2.
Protocol: as §1

The target of experiment [6] is T3, ALK4 (Homo sapiens, UniProt P36896).
T3 sequence (P36896 24-505): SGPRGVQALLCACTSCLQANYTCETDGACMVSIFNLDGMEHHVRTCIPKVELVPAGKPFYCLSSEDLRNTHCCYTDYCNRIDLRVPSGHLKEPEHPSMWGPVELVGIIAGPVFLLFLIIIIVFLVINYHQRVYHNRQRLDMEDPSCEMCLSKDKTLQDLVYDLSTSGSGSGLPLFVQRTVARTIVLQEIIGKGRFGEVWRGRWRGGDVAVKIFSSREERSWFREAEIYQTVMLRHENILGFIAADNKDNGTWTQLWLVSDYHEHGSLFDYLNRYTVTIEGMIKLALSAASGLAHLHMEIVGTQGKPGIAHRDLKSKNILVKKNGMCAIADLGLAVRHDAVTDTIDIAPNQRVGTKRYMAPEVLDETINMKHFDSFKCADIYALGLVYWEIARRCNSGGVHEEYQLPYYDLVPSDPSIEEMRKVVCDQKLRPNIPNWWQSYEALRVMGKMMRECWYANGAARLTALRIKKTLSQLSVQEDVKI
The experiment in a line: TR-FRET enzymatic ALK kinase assay, ALK4.
Protocol: as §1

Sequence of ALK6 (O00238 14-502): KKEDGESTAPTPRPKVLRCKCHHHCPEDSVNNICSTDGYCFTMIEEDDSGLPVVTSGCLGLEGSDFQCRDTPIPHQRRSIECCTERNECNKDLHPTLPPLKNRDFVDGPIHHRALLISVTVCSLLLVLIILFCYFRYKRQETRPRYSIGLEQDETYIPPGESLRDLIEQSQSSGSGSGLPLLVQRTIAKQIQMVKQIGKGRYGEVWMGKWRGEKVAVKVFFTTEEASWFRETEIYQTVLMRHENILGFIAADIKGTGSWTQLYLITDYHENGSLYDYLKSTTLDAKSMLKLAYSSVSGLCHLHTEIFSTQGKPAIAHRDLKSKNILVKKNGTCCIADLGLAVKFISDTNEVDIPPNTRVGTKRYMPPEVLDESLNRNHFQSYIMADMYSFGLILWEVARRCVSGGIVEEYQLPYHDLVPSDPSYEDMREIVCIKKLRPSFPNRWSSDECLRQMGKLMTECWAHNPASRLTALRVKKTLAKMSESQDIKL
Sequence of ALK1 (Homo sapiens, UniProt P37023) (P37023 22-503): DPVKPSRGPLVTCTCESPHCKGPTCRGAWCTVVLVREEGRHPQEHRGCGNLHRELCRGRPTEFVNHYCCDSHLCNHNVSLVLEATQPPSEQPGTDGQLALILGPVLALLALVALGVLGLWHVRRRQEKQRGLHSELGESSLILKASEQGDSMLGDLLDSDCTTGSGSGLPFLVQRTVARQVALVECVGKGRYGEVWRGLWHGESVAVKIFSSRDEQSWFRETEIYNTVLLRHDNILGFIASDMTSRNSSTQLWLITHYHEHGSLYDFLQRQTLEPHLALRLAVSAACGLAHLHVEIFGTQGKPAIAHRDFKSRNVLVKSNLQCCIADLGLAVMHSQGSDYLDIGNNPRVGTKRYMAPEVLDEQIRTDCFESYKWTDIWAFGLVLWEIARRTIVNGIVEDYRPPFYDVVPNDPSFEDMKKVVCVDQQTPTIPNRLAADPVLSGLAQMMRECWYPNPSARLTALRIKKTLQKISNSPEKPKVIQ
Sequence of ALK3 (P36894 24-532): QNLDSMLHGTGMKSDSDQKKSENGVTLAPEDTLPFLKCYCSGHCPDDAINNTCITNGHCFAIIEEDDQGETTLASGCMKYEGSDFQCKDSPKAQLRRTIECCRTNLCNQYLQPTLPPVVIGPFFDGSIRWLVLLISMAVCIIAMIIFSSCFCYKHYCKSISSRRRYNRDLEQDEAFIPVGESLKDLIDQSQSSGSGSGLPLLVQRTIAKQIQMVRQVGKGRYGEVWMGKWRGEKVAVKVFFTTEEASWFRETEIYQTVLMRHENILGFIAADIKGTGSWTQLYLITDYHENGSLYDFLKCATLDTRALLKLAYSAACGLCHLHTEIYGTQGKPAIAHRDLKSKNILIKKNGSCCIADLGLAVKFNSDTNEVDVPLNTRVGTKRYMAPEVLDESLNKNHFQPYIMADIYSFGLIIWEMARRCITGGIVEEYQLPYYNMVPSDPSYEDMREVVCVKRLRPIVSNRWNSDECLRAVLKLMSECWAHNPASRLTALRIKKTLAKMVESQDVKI

As for `C[C@@H]1CNC[C@H](C)N1c1ccc(-c2cnc3c(-c4cccc(C(C)(C)O)c4)cnn3c2)cc1` [Compound 103, 2-(3-(6-(4-((2R,6S)-2,6-dimethylpiperazin-1-yl)phenyl)pyrazolo[1,5-a]pyrimidin-3-yl)phenyl)propan-2-ol], the IC50 in experiment [1] was 29 nM; in experiment [2] it was 4300 nM; in experiment [3] it was 310 nM; in experiment [4], 1400 nM and 560 nM and 1000 nM and 760 nM and 1500 nM and 310 nM and 830 nM; in experiment [5], 13 nM; in experiment [6], 4200 nM.
Take `CC[S+](=O)([O-])c1cccc(-c2cnn3cc(-c4ccc(N5[C@H](C)CNC[C@@H]5C)cc4)cnc23)c1` [Compound 104, 6-(4-((2R,6S)-2,6-dimethylpiperazin-1-yl)phenyl)-3-(3-(ethylsulfonyl)phenyl)pyrazolo[1,5-a]pyrimidine]: the IC50 in experiment [1] is 34 nM; in experiment [2] it was 7400 nM; in experiment [3], 510 nM; in experiment [4], 1100 nM and 360 nM and 860 nM; in experiment [5] it was 14 nM; in experiment [6], 4800 nM.
For the compound `C[S+](=O)([O-])c1cccc(-c2cnn3cc(-c4ccc(OC5(Cn6ccnc6)COC5)cc4)cnc23)c1` [Compound 105, 6-(4-((3-((1H-imidazol-1-yl)methyl)oxetan-3-yl)oxy)phenyl)-3-(3-(methylsulfonyl)phenyl)pyrazolo[1,5-a]pyrimidine], the IC50 in experiment [1] is 150 nM; in experiment [2], more than 10000 nM; in experiment [3], more than 10000 nM; in experiment [4], 1400 nM and 2300 nM and 1200 nM; in experiment [5], 95 nM; in experiment [6], more than 10000 nM.
As to `CS(=O)(=O)c1cccc(-c2cnn3cc(-c4ccc(OCCN5CCCC5)cc4)cnc23)c1` [Compound 108, 3-(3-(methylsulfonyl)phenyl)-6-(4-(2-(pyrrolidin-1-yl)ethoxy)phenyl)pyrazolo[1,5-a]pyrimidine], the IC50 in experiment [1] was 390 nM; in experiment [2], more than 10000 nM; in experiment [3], 2600 nM; in experiment [4] it was 3900 nM; in experiment [5] it was 83 nM; in experiment [6] it was more than 10000 nM.
Take `C[C@@H]1CNC[C@H](C)N1c1ccc(-c2cnc3c(-c4cccc([S+](=O)([O-])C5CC5)c4)cnn3c2)cc1` [Compound 111, 3-(3-(cyclopropylsulfonyl)phenyl)-6-(4-((2R,6S)-2,6-dimethylpiperazin-1-yl)phenyl)pyrazolo[1,5-a]pyrimidine]: the IC50 is 120 nM in experiment [1]; more than 10000 nM in experiment [2]; 970 nM in experiment [3]; 1800 nM in experiment [4]; 17 nM in experiment [5]; 6500 nM in experiment [6].
Take `CC1(c2ccc(-c3cnc4c(-c5cccc(S(C)(=O)=O)c5)cnn4c3)cc2)CCNCC1` [Compound 115, 6-(4-(4-methylpiperidin-4-yl)phenyl)-3-(3-(methylsulfonyl)phenyl)pyrazolo[1,5-a]pyrimidine]: the IC50 was determined as 110 nM in experiment [1]; 9000 nM in experiment [2]; 1700 nM in experiment [3]; 1500 nM in experiment [4]; 33 nM in experiment [5]; 9100 nM in experiment [6].
Turning to `C[C@@H]1CNC[C@H](C)N1c1ccc(-c2cnc3c(-c4cccc(C[S+](C)(=O)[O-])c4)cnn3c2)cc1` [Compound 117, 6-(4-((2R,6S)-2,6-dimethylpiperazin-1-yl)phenyl)-3-(3-((methylsulfonyl)methyl)phenyl)pyrazolo[1,5-a]pyrimidine], the IC50 in experiment [1] was 200 nM; in experiment [2], 8700 nM; in experiment [3], 3400 nM; in experiment [4], 2400 nM; in experiment [5], 49 nM; in experiment [6] it was 8500 nM.
